{
  "source": "patent US12319677B2",
  "about": "“Process for the production of 5-(4-((2S,5S)-5-(4-chlorobenzyl)-2-methyl-morpholino)piperidin-1-yl)-1H-1,2,4-triazol-3-amine” (Molecure S.A., priority 2019, dated 2025)",
  "assay_type_in_all_cases": "physicochemical",
  "key": {"[1]": {"assay": "Particle size distribution (PSD), Malvern Mastersizer 2000 in Isopar G", "details": "three batches of the anhydrous form made by method D", "excerpt": "The synthesis of the compound of formula 1 hydrated form I followed by the synthesis of the compound of the formula 1 anhydrous form has a significant advantage as compared to the synthesis of the compound of formula 1 described in WO 2017/037670. Under new conditions, the precipitation of the compound of the formula 1 hydrated form I unobviously allows to control the amount of residual hydrazine which is considered as a genotoxic impurity and must be controlled at ppm levels. The method outlined in the previous paragraph was used for the synthesis of three batches of the anhydrous form of the compound of formula 1. This material was carefully analyzed for purity, residual hydrazine level and particle size distribution.\nPSD data were recoded with Malvern Mastersizer 2000 in Isopar G."}, "[2]": {"assay": "Solid-state stability of the hydrated forms upon drying", "details": "leads to amorphous form", "excerpt": "Due to the fact that the compound of formula 6 is not stable in methanol, it is not possible to obtain the hydrated form II directly from the compound 6 as for hydrated form I of the compound of formula 1. Both hydrated forms I and II of the compound of formula 1 are unstable, leading to amorphous form upon drying. The XPRD data for the dried material and data calculated from X-ray structure differ. […] The amorphous form of the compound of formula 1 can be prepared in a more convenient way by melting the anhydrous form or hydrated form I or II of the compound of formula 1 followed by cooling off the material to ambient temperature. After grinding the glass-like solid, […] of the compound of formula 1 is an off-white solid."}, "[3]": {"assay": "Stability of process intermediates (in methanol / as free base)", "excerpt": "Under conditions described in the patent application WO 2017/037670 (sodium triacetoxy-borohydride, acetic acid and 1,2-dichloroethane), the compound of formula 11 reacts with N-Boc-4-piperidinone leading to a by-product of formula 12 which is observed in crude compound of formula 3. The impurity of formula 12 can be removed by the careful purification on silica gel but such an approach is unacceptable on a kilo-scale. […] Since the compound of formula 11 can be easily removed by crystallization after removal of the tert-butoxycarbonyl protection group, the present invention relates to a method for the synthesis of the compound of formula 5 with no impurity of formula 13. Moreover, the conditions described in this application unobviously allow one to use hydrochloride salt of the compound of formula 2 as the starting material which can facilitate the process. […]\nDue to the fact that the compound of formula 6 is not stable in methanol, it is not possible to obtain the hydrated form II directly from the compound 6 as for hydrated form I of the compound of formula 1. […] The XPRD data for the dried material and data calculated from X-ray structure differ. […]"}},
  "note": "Several values for one entry are separate records, joined by “and”; a condition that tells them apart may be missing. Equal entries are not always repeated.",
  "data": [
    {"smiles": "C[C@H]1CN(C2CCN(c3nc(N)n[nH]3)CC2)[C@@H](Cc2ccc(Cl)cc2)CO1", "note": "[1, anhydrous form, 5-(4-((2S,5S)-5-(4-chlorobenzyl)-2-methylmorpholino)piperidin-1-yl)-1H-1,2,4-triazol-3-amine]", "values": [
      {"measurement": "Particle size distribution D10", "setting": "[1]", "value": "152 μm and 202 μm and 154 μm"},
      {"measurement": "Particle size distribution D50", "setting": "[1]", "value": "255 μm and 357 μm and 284 μm"},
      {"measurement": "Particle size distribution D90", "setting": "[1]", "value": "403 μm and 577 μm and 485 μm"}
    ]},
    {"smiles": "C[C@H]1CN(C2CCN(c3nc(N)n[nH]3)CC2)[C@@H](Cc2ccc(Cl)cc2)CO1", "note": "[1, hydrated form I, 5-(4-((2S,5S)-5-(4-chlorobenzyl)-2-methylmorpholino)piperidin-1-yl)-1H-1,2,4-triazol-3-amine]", "values": [
      {"measurement": "Stability of crystalline form", "setting": "[2]", "value": "unstable"}
    ]},
    {"smiles": "C[C@H]1CN[C@@H](Cc2ccc(Cl)cc2)CO1", "note": "[compound 2, (2S,5S)-5-(4-chlorobenzyl)-2-methylmorpholine]", "values": [
      {"measurement": "Stability of free base", "setting": "[3]; free base (oil), must be kept as a salt to prevent decomposition", "value": "limited stability"}
    ]},
    {"smiles": "CS/C(=N\\C#N)N1CCC(N2C[C@H](C)OC[C@@H]2Cc2ccc(Cl)cc2)CC1", "note": "[compound 6, methyl (Z)-4-((2S,5S)-5-(4-chlorobenzyl)-2-methylmorpholino)-N-cyanopiperidine-1-carbimidothioate]", "values": [
      {"measurement": "Stability in methanol", "setting": "[3]; in methanol", "value": "not stable"}
    ]}
  ]
}
